Results taken from patent US20060084599A1, “Compositions, methods and kits relating to notch signaling” (Maine Medical Center, priority 2003, published 2006).
Marks after values point to notes of the source that are not given here.

B1: sDl1: soluble non-transmembrane form (extracellular domain) of the Notch ligand Delta1 (protein)
chain: QVWSSGVFELKLQEFVNKKGLLGNRNCCRGGAGPPPCACRTFFRVCLKHYQASVSPEPPCTYGSAVTPVLGVDSFSLPDGGGADSAFSNPIRFPFGFTWPGTFSLIIEALHTDSPDDLATENPERLISRLATQRHLTVGEEWSQDLHSSGRTDLKYSYRFVCDEHYYGEGCSVFCRPRDDAFGHFTCGERGEKVCNPGWKGPYCTEPICLPGCDEQHGFCDKPGECKCRVGWQGRYCDECIRYPGCLHGTCQQPWQCNCQEGWGGLFCNQDLNYCTHHKPCKNGATCTNTGQGSYTCSCRPGYTGATCELGIDECDPSPCKNGGSCTDLENSYSCTCPPGFYGKICELSAMTCADGPCFNGGRCSDSPDGGYSCRCPVGYSGFNCEKKIDYCSSSPCSNGAKCVDLGDAYLCRCQAGFSGRHCDDNVDDCASSPCANGGTCRDGVNDFSCTCPPGYTGRNCSAPVSRCEHAPCHNGATCHERGHRYVCECARGYGGPNCQFLLPELPPGPAVVDLTEKLEGQGGPFPW
modifications: left off: small tags and cut ends
notes: soluble non-transmembrane form (extracellular domain) of the Notch ligand Delta1

Columns and labels:
[1] = test system: Nestin, Nucleostemin, and Bmi1 transcripts; assay: RT-PCR of stem cell marker transcripts; type: cell-based, murine; details: for levels of Nestin, Nucleostemin and Bmi1 transcripts: p75+/P0- neural crest stem cells, 24 and 48 hours; for relative expression of Nestin, Nucleostemin and Bmi1 transcripts: primary and secondary neurosphere cultures
Method: RT-PCR was performed with 1 μg RNA using the Platinum Taq One Step RT-PCR kit (Invitrogen) as follows: RT (30 minutes at 50° C.), PCR (40 cycles at 94° C. for 15 seconds, at 58° C. for 30 seconds and 72° C. for 1 minute). All amplified cDNA was visualized with ethidium bromide followed by 1.5% agarose gel electrophoresis. RT-PCR analysis of fgf and gapdh was performed as previously described elsewhere herein. RT-PCR analysis of stem cell RNA was performed as previously described (Verdi et al., 1994, Neuron 13:1359-1372; Verdi et al., 1996, Neuron 16:515-527) using primers generating amplification products of Nucleostemin from 894 to 1304 of the mouse cDNA (sense: Nucleostemin 894 5′-CAAATGTGGGGAAAAGCAGTGTCA-3′ [SEQ ID NO:34] and antisense: Nucleostemin 1304 5′-GCAGGGGGATGGCAATAGTAACC-3′ [SEQ ID NO:35]); Bmi1 from 242 to 632 of mouse cDNA (sense: Bmi 242 5′-AATTAGTCCCAGGGCTTTTCAA-3′ [SEQ ID NO:36] and antisense: Bmi 632 5′-GGGCCATTTCTTCTCCAGGTAT-3′ [SEQ ID NO:37]), and Nestin from 320-748 (sense: Nestin 320 5′-CA ACC TTG CCG AAG AGC TGG-3′ [SEQ ID NO:38] and antisense: Nestin 720 5′-TCTAAGCGACTCTCCGAGCGC-3′ [SEQ ID NO:39]). Each reaction product was measured as a ratio relative to the amplification product of actin and samples were run in triplicate. All RT-PCR experiments were performed at least three times from separate stem cell isolations. Dual Luciferase Reporter Assay

FGF1.A transcript = assay: RT-PCR analysis of FGF1.A mRNA in NCSC; type: cell-based, murine; details: 48 hours; 7.5 nM sJ1, 5.0 nM sDl1, 10 μg/ml α-thrombin or 5 μg/ml TRAP
NCSC populations [2] = assay: Clonogenic differentiation of primary NCSC clones (differentiation markers, GFAP immunoreactivity); type: cell-based, murine; details: for NCSC clones not expressing gliogenic or neurogenic differentiation markers: after 7 days of expansion
Method: (§1) Clonogenic assays were performed as described (Stemple et al., 1992, Cell 71:973-985). Briefly, populations of murine NCSC were plated at a clonal density and maintained for a maximum of 14 days in Morrison media supplemented with 15% chick embryo extract (Morrison et al., 1999, Cell 96:737-749). The resulting clones were fixed in an acetic acid:ethanol solution (2:1) and stained with antibodies against peripherin (Chemicon) to detect neurons, smooth muscle actin (Sigma) to detect myofibroblasts, and GFAP (Chemicon) to detect Schwann cells. Clones were scored based on the appearance of just one phenotypic representative. The number and percentage of clones containing neurons only (N), Schwann cells only (S), myofibroblasts only (M), N+S, N+M, N+S+M, and S+M were scored at day 14 unless otherwise stated. The production of each representative phenotype in each individual clone was also scored to complement the clonal population assay.
Instead of examining the NCSC progeny after 14 days, developing clones were examined beginning at day 2 in order to determine the time period when gliogenic differentiation was initiated.
Specifically, clonogenic differentiation and serial subcloning assays were performed using NCSC clones incubated with either thrombin, sDl1, sJ1 or TRAP.

NCSC populations [3] = assay: Serial subcloning and clonogenic differentiation of secondary NCSC; type: cell-based, murine; parameters: G (glial only) colonies / Sm (smooth muscle only) colonies / G + Sm colonies: unit not given here; details: for G (glial only) colonies / G + Sm colonies / N (neurons only) colonies / N + G + Sm (trifatent) colonies / N + G colonies / N + Sm colonies / Sm (smooth muscle only) colonies: differentiation profile of secondary NCSC clones; for G (glial only) colonies / G + Sm colonies / N (neurons only) colonies / N + G + Sm (trifatent) colonies / N + G colonies / N + Sm colonies / Sm (smooth muscle only) colonies / Secondary NSSC/ Founder: mean ± SD of three experiments; for clones that were trifatent (neurons, glial, and smooth muscle progeny): secondary clones from treated founder clones; for Secondary NSSC/ Founder: secondary stem cells from NCSC founders after ten days of expansion
Method: as §1
In order to generate secondary NCSC populations, founder clones originating from differentiating E10 clones at distinct time points during NCSC differentiation (days 2 through 18) were treated with trypsin and replated at a cell clonal density using methods previously described (Kubu et al., 2000, Genomics 70:150-152). The resulting cells were subjected to immunofluorescence microscopy using both p75^+ and P0^− antibodies (Kubu et al., 2000, Genomics 70:150-152) and the p75^+/P0^− cells identified as putative stem cells. All non-p75^+/P0^− cells were removed from the dish with a tungsten needle. The cultures of secondary NCSC clones were subjected to the clonogenic assay as described above.

NIH 3T3 cells = assay: Cell migration (scratch) assay; type: cell-based, mouse; details: stable NIH 3T3 cell transfectants expressing the ligand
Method: Cell Migration Assay. Approximately 10^5 Sj1 or sDl1 NIH 3T3 cells were plated in 6-well plastic plates (Falcon) DMEM supplemented with 10% (w/v) bovine calf serum (BCS; Hyclone) and after the cells reached approximately 60-70% confluence, the cell monolayer was scratched using a plastic cell scraper. Photomicrographs were taken immediately after the injury and 24 hours and 48 hours later.

cortical neurospheres = assay: Cortical neurosphere model, secondary sphere formation; type: cell-based, murine; details: for F/SP × 10^2 / Cells/Founder (F) / Secondary Spheres (SP): at day 10; for Cells/Founder (F) / Secondary Spheres (SP): mean ± SD of three experiments; for secondary spheres per primary sphere: primary spheres grown 2 weeks with factor, secondary spheres in standard media
Excerpt: Murine E13 cerebral cortices were dissected, the ventricular zone isolated, dissected free of the meninges and utilized as a source for the generation of clonal neurspheres. The resulting cells were dispersed by aspiration to produce single cells and cells expressing the […], CD24 as previously described (Rietze et al., 2001), and peanut agglutinin antigen (PNA) were sorted using a FASC Vantage SE cell sorter at a low gate (CD24^low/PNA^low), and the cells were subjected to immunofluoresence microscopy using an antibody against CD24 (Rietze et al., 2001, Nature 412:736-739). Double-positive cells (2×10^3 /ml) were plated in suspension as described (Reynolds et al., 1992, J. Neurosci. 12:4565-4574; Reynolds et al., 1992, Science 255:1707-1710) and secondary neurospheres generated 14 days later by isolating single spheres followed by trypsin digestion of each sphere. Cells obtained from the sphere were placed in suspension culture at a clonal cell seed density and colonies selected.
The E14 prefrontal ventricular zone was dissected and plated at a clonal neurosphere-forming density in the presence of either sJ1, sDl1, thrombin, TRAP or no supplementation. After 2 weeks, the clones were dissociated to single cells and secondary spheres were generated using standard media with no supplementation (Reynolds et al., 1992, J. Neurosci. 12:4565-4574).
Secondary spheres (SP) are formed from the dissociation of founder (F) spheres. The data presented are the number of colonies (mean ± SD of three experiments). (*=p#0.05).

| Molecule | levels of Nestin, Nucleostemin and Bmi1 transcripts [1] | relative expression of Nestin, Nucleostemin and Bmi1 transcripts [1] | expression of the FGF1.A transcript in NCSC (FGF1.A transcript) | NCSC clones not expressing gliogenic or neurogenic differentiation markers (NCSC populations [2]) [%] | G (glial only) colonies (NCSC populations [3]) | G + Sm colonies (NCSC populations [3]) | N (neurons only) colonies (NCSC populations [3]) | N + G + Sm (trifatent) colonies (NCSC populations [3]) | N + G colonies (NCSC populations [3]) | N + Sm colonies (NCSC populations [3]) | Sm (smooth muscle only) colonies (NCSC populations [3]) | clones that were trifatent (neurons, glial, and smooth muscle progeny) (NCSC populations [3]) [%] | Secondary NSSC/ Founder (NCSC populations [3]) | migratory behavior (NIH 3T3 cells) | F/SP × 10^2 (cortical neurospheres) | Cells/Founder (F) (cortical neurospheres) | Secondary Spheres (SP) (cortical neurospheres) | secondary spheres per primary sphere (cortical neurospheres) | also measured |
| --- | --- | --- | --- | --- | --- | --- | --- | --- | --- | --- | --- | --- | --- | --- | --- | --- | --- | --- | --- |
| sJ1: Soluble Jagged1, amino acid residues about 1 to 1067 (SEQ ID NO:3) of full-length human Jagged1 | no significant change | elevated | induced the expression of the FGF1.A transcript | 84±7 | 7.8 ± 1.4 | 3.4 ± 2.8 | 0 | 74.1 ± 9.1 | 7.0 ± 5.6 | 1.5 ± 1.7 | 6.2 ± 1.0 | 74.1±9 | 26.2 ± 6 | exhibited a decrease in their migratory potential | 10%* | 527 ± 170* | 55 ± 14 | 64±11 | percentage of the colony expressing the glial-specific protein (GFAP) (NCSC populations [2]; at day 7): 23±5; gliogenic differentiation of NCSC (NCSC populations [2]; two week differentiation assay): capable of inducing gliogenic differentiation of the NCSC population over the two week period |
| thrombin | no significant change | elevated | induced the expression of the FGF1.A transcript | 75±11 | 0 ± 0 | 2.0 ± 2.1 | 0 | 86.8 ± 2.1 | 3.93 ± 3.8 | 4.5 ± 2.1 | 2.6 ± 1.01 | 86.8±2.1 | 36.8 ± 6.3 | – | 13%* | 488 ± 166* | 64 ± 11 | 55±14 | – |
| B1 | sharply decreased | – | did not influence the steady-state levels of the FGF1.A transcript | 0±0 | 72 ± 6.4 | 3.4 ± 2.8 | 0 | 0.5 ± 0.7 | 0 | 0 | 20.5 ± 6.5 | 0.5 | 0.6 ± 1.0 | displayed normal motility | 2.0% | 150 ± 69* | 3 ± 3 | 3±3 | exposure time after which GFAP immunoreactive cells were detected (NCSC populations [2]; NCSC populations): 48 h |
